Data published in patent publication EP4653523A1, “CULTURE MEDIUM, PRODUCTION METHOD, AND CELL PREPARATION” (National University Corporation Kumamoto University, priority 2023, dated 2024).

Experiments:
EPCR High cell group [1] = assay: Ex vivo culture of mouse EPCR High cell group for 4 days, flow cytometry and cell count; type: cell-based; conditions: cultured for 4 days, vs control
Description: The expression of c-kit and EPCR in a hematopoietic stem cell fraction (lineage: CD150+, CD48-) isolated from a mouse by using flow cytometry was checked. Among the c-kit-positive and EPCR-positive cells, a cell group of the top 30% of the EPCR-positive cells was defined as an EPCR High cell group, and a cell group of the bottom 30% of the EPCR-positive cells was defined as an EPCR Low cell group (see FIG. 1). Each cell group was transplanted into a recipient mouse, and 20 weeks later, the proportion of cells derived from the transplanted stem cells was examined in the peripheral blood (PB). In addition, at the same time, the proportion of cells derived from the transplanted stem cells was examined in the hematopoietic stem cell fraction ([…]) in the bone marrow after 20 weeks of the transplantation. The experiment was carried out twice. […] The culture medium used for the ex vivo culture of the untreated hematopoietic stem cells isolated from the mouse is a culture medium obtained by adding, to the RPMI medium, L-Alanin (4.45mg/L), Zinc Sulfate Heptahydrate (0.432mg/L), Cupric Sulfate Pentahydrate (0.0013mg/L), Ferric Nitrate Nonahydrate (0.05mg/L), Ferrous Sulfate Heptahydrate (0.417mg/L), Linoleic acid (0.042mg/L), Hypoxanthine (2.1mg/L), Putrescine + 2HCL (0.081mg/L), Thioctic Acid (0.105mg/L), Thymidine (0.365mg/L), Sodium Pyruvate (55mg/L), HEPES (1mM), a penicillin-streptomycin mixed solution (Nacalai Tesque, Inc.: 26253-84) (1/100 capacity), Insulin-Transferrin-Selenium-Ethanolamine (Thermo Fisher Scientific, Inc.: 51500056) (1/100 capacity), and AlbuMAXtm I Lipid-Rich BSA (Thermo Fisher Scientific, Inc.: 11020021) (2%). As shown in FIG. 5(A), α-ketoglutaric acid (αKG), which is an intermediate metabolite of the TCA cycle, is also produced from glutamic acid or the like, and then it is supplied to the TCA cycle. In addition, in the production of α-ketoglutaric acid from glutamic acid, two pathways of a transaminase pathway and a glutamate dehydrogenase pathway are used (see FIG. 5(B)). Therefore, the proportion of EPCR High in hematopoietic stem cells was determined in a case where the EPCR High cell group was cultured for 4 days by adding each of an inhibitor […] (30 μM) of glutamate dehydrogenase and an inhibitor aminooxyacetic acid (AOA) (50 μM) of transaminase to the culture medium, and in a case where the content of […] in the culture medium, which is the source of glutamic acid synthesis, was set to 1/100 (0.02 mM) in FIG. 5(A) (Low Neu.). […] As a result, in a case of culturing in the presence of […], the number of cells having the EPCR High phenotype is increased by about 2 times in the culture for 4 days, as compared with the culture under the normal culture conditions. […]

recipient mouse = assay: Transplantation of cultured cell groups into recipient mouse, proportion of donor-derived cells; type: in vivo
Protocol: Mouse EPCR High cells were cultured for 4 days under the normal culture conditions or in the presence of R162, and 50 cells of each of an EPCR High cell group (Control) generated under the normal culture conditions, an EPCR Low cell group (Control), and an EPCR High cell group (R162) amplified in the presence of R162 were aliquoted and then transplanted into a recipient mouse. Then, after 4 weeks and 12 weeks, the proportion of cells derived from donor cells in the peripheral blood was examined.
Further, the EPCR High cells were cultured for 4 days under the normal culture conditions and cultured for 4 days in the presence of R162, and the EPCR High cell group generated under the normal culture conditions, the EPCR Low cell group, and the EPCR High cell group (R162) amplified in the presence of R162 were each transplanted into a recipient mouse. Then, 20 weeks later, the proportion of cells derived from donor cells was examined in the peripheral blood and the hematopoietic stem cell fraction in the bone marrow (L-ESLAM (BM)).

EPCR High cell group [2] = assay: Chromatin status by open chromatin region analysis (ATAC-sequence) with principal component analysis; type: cell-based, mouse; conditions: 4d gEPCR-High (R162) compared with 4d gEPCR-High, cultured for 4 days
Protocol: In the same manner, the chromatin status of each cell group was analyzed by open chromatin region analysis (ATAC-sequence).

EPCR High cell group [3] = assay: Gene expression pattern analysis by RNA-sequence with principal component analysis; type: cell-based, mouse; conditions: 4d gEPCR-High (R162) compared with 4d gEPCR-High, cultured for 4 days
[4] = system: Human CD34^+ bone marrow cells; assay: Culture of human CD34+ bone marrow cells for 7 days, total cell count and flow cytometry; type: cell-based
Protocol: Human CD34^+ bone marrow cells (10,000 cells) were cultured for 7 days under normal culture conditions or in the presence of a glutamate dehydrogenase inhibitor R162 (30 µM), and then the total number of cells was analyzed. Then, the proportion of hematopoietic stem cells (lineage: CD34+ CD38- CD90+ cells) was analyzed using a flow cytometer, and from the results, the number of stem cells was estimated. FIG. 13 and FIG. 14 show the results. As shown in FIG. 14(A), it has been confirmed that the total number of cells is not changed by the presence of R162 as compared with the control, whereas as shown in FIG. 14(B), the ratio of stem cells after culturing is increased by the presence of R162.
The culture medium used for the ex vivo culture of human CD34+ bone marrow cells is a culture medium obtained by adding, to the RPMI medium, L-Alanin (4.45mg/L), Zinc Sulfate Heptahydrate (0.432mg/L), Cupric Sulfate Pentahydrate (0.0013mg/L), Ferric Nitrate Nonahydrate (0.05mg/L), Ferrous Sulfate Heptahydrate (0.417mg/L), Linoleic acid (0.042mg/L), Hypoxanthine (2.1mg/L), Putrescine + 2HCL (0.081mg/L), Thioctic Acid (0.105mg/L), Thymidine (0.365mg/L), Sodium Pyruvate (55mg/L), HEPES (1mM), a penicillin-streptomycin mixed solution (Nacalai Tesque, Inc.: 26253-84) (1/100 capacity), Insulin-Transferrin-Selenium-Ethanolamine (Thermo Fisher Scientific, Inc.: 51500056) (1/100 capacity), and AlbuMAXtm I Lipid-Rich BSA (Thermo Fisher Scientific, Inc.: 11020021) (2%).

## O=C(O[C@@H]1Cc2c(O)cc(O)cc2O[C@@H]1c1cc(O)c(O)c(O)c1)c1cc(O)c(O)c(O)c1 [EGCG, epigallo catechin-3-gallate]
EPCR High cell group [1]; EGCG 50 µM in culture medium
  proportion of EPCR-positive cells (phenotype of EPCR High): phenotype of EPCR High is maintained

## NOCC(=O)O [AOA, aminooxyacetic acid]
EPCR High cell group [1]; AOA 50 µM
  number of cells: significantly reduced as compared with the control

## C=CCc1ccc2c(c1O)C(=O)c1ccccc1C2=O [R162, 2-allyl-1-hydroxy-9,10-anthraquinone]
Recipient mouse; 50 cells of EPCR High cell group amplified 4 days in the presence of R162, transplanted, after 4 weeks and 12 weeks
  proportion of cells derived from donor cells in the peripheral blood: high ability to reconstruct hematopoietic tissue, which is equivalent to the EPCR High cell group (Control)
Recipient mouse; EPCR High cell group amplified 4 days in the presence of R162, transplanted, 20 weeks later
  proportion of cells derived from donor cells in the peripheral blood and the hematopoietic stem cell fraction in the bone marrow (L-ESLAM (BM)): high ability to maintain the reconstructed hematopoiesis for a longer period of time
EPCR High cell group [1]; R162 30 µM in culture medium
  proportion of EPCR High in hematopoietic stem cells: phenotype of EPCR High is maintained
EPCR High cell group [1]; R162 30 µM
  number of cells: about the same level as that of the control
EPCR High cell group [2]
  chromatin status (chromatin accessibility of cis-element regions): extremely similar gene expression patterns even in the chromatin status
EPCR High cell group [3]
  gene expression pattern: extremely similar gene expression patterns
[4]; R162 30 µM, 10,000 cells cultured for 7 days, vs control
  total number of cells: not changed
[4]; R162 30 µM, cultured for 7 days, estimated from total cell number and proportion, vs normal culture conditions
  number of stem cells: the number of stem cells is increased
[4]; R162 30 µM, cultured for 7 days, vs control
  ratio of stem cells after culturing (CD34+ CD38- CD90+ cells): increased
